Our source for the logP and chromatographic logP values is patent US20160075653A1, “NEMATICIDAL N-(PHENYLCYCLOALKYL)CARBOXAMIDES AND N-(PHENYLCYCLOALKYL)THIOCARBOXAMIDES” (BAYER CROPSCIENCE AKTIENGESELLSCHAFT, priority 2013, published 2016).

This data set can be described thus: Measurement of log P values by HPLC on reversed phase columns (methods [a] pH 2.3, [b] pH 2.7, [c] pH 7.8). The format is physicochemical. The conditions noted are these: for logP: HPLC reversed phase; for chromatographic logP: reversed phase HPLC columns, pH 2.7, HPLC reversed phase, read-out: logP. The method, boiled down:
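Determined per EEC Directive 79/831 Annex V.A8 by reversed-phase HPLC, 10-95% acetonitrile gradient: [a] pH 2.3, 0.1% phosphoric acid; [b] LC-MS, pH 2.7, 0.1% formic acid; [c] LC-MS, pH 7.8, 0.001 molar ammonium hydrogen carbonate. Calibrated with C3-C16 alkan-2-ones by retention-time interpolation.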

For `O=C(NC1CCCCC1c1ccccc1C(F)(F)F)c1cccnc1Cl` (centres unmarked) [Example 387], where the note is “method [b] (pH 2.7)”, the logP is 3.33^[b].
On to `O=C(NC1CCCCC1c1ccccc1C(F)(F)F)c1ccccc1Cl` (centres unmarked) [Example 388], for which the logP (method [b] (pH 2.7)) was 4.02^[b].
`O=C(NC1CCCCC1c1ccccc1C(F)(F)F)c1ccccc1I` (centres unmarked) [Example 389]: the logP (method [b] (pH 2.7)) was 4.13^[b].
With `O=C(NC1CCCCC1c1ccccc1C(F)(F)F)c1ccccc1C(F)(F)F` (centres unmarked) [Example 390], the logP (method [b] (pH 2.7)) is 4.11^[b].
The same measure, in the same setting: then `O=C(NC1CCCC1c1ccccc1Cl)c1c(F)cccc1F` (centres unmarked) [Example 391], with 3.18^[b].
As to `Cc1nc(C)c(C(=O)NC2CCCCC2c2ccccc2C(F)(F)F)s1` (centres unmarked) [Example 392], for the setting “method [b] (pH 2.7)”, the logP was 3.49^[b].
Regarding `Cc1nn(C)cc1C(=O)NC1CCCCC1c1c(F)cccc1F` (centres unmarked) [Example 393], where the note is “method [b] (pH 2.7)”, the logP is 2.51^[b].
With `Cc1nc(C)c(C(=O)NC2CCCCC2c2c(F)cccc2F)s1` (centres unmarked) [Example 394], the logP (method [b] (pH 2.7)) was 3.16^[b].
On to `O=C(NC1CCCCC1c1c(F)cccc1F)c1c(F)cccc1F` (centres unmarked) [Example 395], for which the logP (method [b] (pH 2.7)) was 3.44^[b].
Regarding `O=C(NC1CCCCC1c1c(F)cccc1F)c1ccccc1Cl` (centres unmarked) [Example 396], the logP (method [b] (pH 2.7)) is 3.68^[b].
In the case of `O=C(NC1CCCCC1c1c(F)cccc1F)c1cccnc1Cl` (centres unmarked) [Example 397], where the note is “method [b] (pH 2.7)”, the logP was 2.99^[b].
For the molecule `O=C(NC1CCCCC1c1c(F)cccc1F)c1cccnc1C(F)(F)F` (centres unmarked) [Example 398], the logP (method [b] (pH 2.7)) is 3.26^[b].
For the molecule `O=C(NC1CCCCC1c1c(F)cccc1F)c1ccccc1C(F)(F)F` (centres unmarked) [Example 399], the logP (method [b] (pH 2.7)) is 3.87^[b].
`O=C(NC1CCCCC1c1c(F)cccc1F)c1ccccc1I` (centres unmarked) [Example 400]: the logP (method [b] (pH 2.7)) is 3.84^[b].
On to `Cc1nc(C)c(C(=O)NC2CCCCC2c2ccccc2Br)s1` (centres unmarked) [Example 401], for which, for the setting “method [b] (pH 2.7)”, the logP is 3.35^[b].
Take `Cc1nn(C)cc1C(=O)NC1CCCCC1c1ccccc1Br` (centres unmarked) [Example 402]: under “method [b] (pH 2.7)”, the logP is 2.74^[b].
With `O=C(NC1CCCCC1c1ccccc1Br)c1cccnc1C(F)(F)F` (centres unmarked) [Example 403], the logP (method [b] (pH 2.7)) is 3.53^[b].
Turning to `O=C(NC1CCCCC1c1ccccc1Br)c1c(F)cccc1F` (centres unmarked) [Example 404], the logP (method [b] (pH 2.7)) is 3.78^[b].
With `O=C(NC1CCCCC1c1ccccc1Br)c1ccccc1Cl` (centres unmarked) [Example 405], the logP (method [b] (pH 2.7)) was 3.97^[b].
Same read-out and setting: then `O=C(NC1CCCCC1c1ccccc1Br)c1ccccc1I` (centres unmarked) [Example 406], with 4.12^[b]; and `O=C(NC1CCCCC1c1ccccc1Br)c1ccccc1C(F)(F)F` (centres unmarked) [Example 407], with 4.10^[b].
Consider `O=C(NC1CCCCC1c1ccc(Cl)cc1Cl)c1cccnc1Cl` (centres unmarked) [Example 408], for which the logP (method [b] (pH 2.7)) is 3.76^[b].
Consider `O=C(NC1CCCCC1c1ccc(Cl)cc1Cl)c1ccccc1Cl` (centres unmarked) [Example 409], for which the logP (method [b] (pH 2.7)) was 4.47^[b].
For the molecule `Cc1nc(C)c(C(=O)NC2CCCCC2c2ccc(Cl)cc2Cl)s1` (centres unmarked) [Example 410], the logP (method [b] (pH 2.7)) was 3.88^[b].
In the case of `O=C(NC1CCCCC1c1ccc(Cl)cc1Cl)c1c(F)cccc1F` (centres unmarked) [Example 411], the logP (method [b] (pH 2.7)) is 4.26^[b].
As for `O=C(NC1CCCCC1c1ccc(Cl)cc1Cl)c1ccccc1C(F)(F)F` (centres unmarked) [Example 412], the logP (method [b] (pH 2.7)) was 4.49^[b].
Take `O=C(NC1CCCCC1c1ccccc1Br)c1cccnc1Cl` (centres unmarked) [Example 413]: where the note is “method [b] (pH 2.7)”, the logP is 3.25^[b].
In the case of `O=C(NC1CCCCC1c1ccc(Cl)cc1Cl)c1ccccc1I` (centres unmarked) [Example 415], the logP (method [b] (pH 2.7)) is 4.57^[b].
In the case of `Cc1nn(C)cc1C(=O)NC1CCCCC1c1ccc(Cl)cc1Cl` (centres unmarked) [Example 416], the logP (method [b] (pH 2.7)) is 3.19^[b].
As to `O=C(NC1CCCCCC1c1ccccc1C(F)(F)F)c1cccnc1C(F)(F)F` (centres unmarked) [Example 418], the logP (method [b] (pH 2.7)) was 3.94^[b].
On to `O=C(NC1CCCCCC1c1ccccc1C(F)(F)F)c1ccccc1I` (centres unmarked) [Example 419], for which the logP (method [b] (pH 2.7)) is 4.59^[b].
As to `O=C(NC1CCCCCC1c1ccccc1C(F)(F)F)c1ccccc1C(F)(F)F` (centres unmarked) [Example 420], the logP (method [b] (pH 2.7)) was 4.55^[b].
For the molecule `Cn1cc(C(=O)NC2CCCCCC2c2ccccc2C(F)(F)F)c(C(F)F)n1` (centres unmarked) [Example 421], the logP (method [b] (pH 2.7)) was 3.69^[b].
As to `O=C(NC1CC1c1ccc(Cl)cc1)c1ccccc1F` (centres unmarked) [Example 422], the logP is 3.12^[b] (method [b] (pH 2.7)) and 3.07^[c]; (method [c] pH 7.8).
On to `O=C(NC1CC1c1ccc(Cl)cc1)c1ccccc1Br` (centres unmarked) [Example 423], for which the logP (method [b] (pH 2.7)) is 3.13^[b] and the logP (method [c] pH 7.8) was 3.07^[c];.
As to `O=C(NC1CCC1c1ccccc1C(F)(F)F)c1ccccc1I` (centres unmarked) [Example 428], where the note is “method [b] (pH 2.7)”, the logP is 3.42^[b].
The same measure, in the same setting: then `O=C(NC1CCC1c1ccccc1C(F)(F)F)c1ccc(Cl)cc1` (centres unmarked) [Example 429], with 3.56^[b]; and `O=C(NC1CCC1c1ccccc1C(F)(F)F)c1ccccc1Cl` (centres unmarked) [Example 433], with 3.01^[b].
On the same count and under the same terms, then `O=C(NC1CCC1c1ccccc1C(F)(F)F)c1cccc(Cl)c1` (centres unmarked) [Example 436], with 3.59^[b]; and `O=C(NC1CCC1c1ccccc1C(F)(F)F)c1ncc(C(F)(F)F)cc1Cl` (centres unmarked) [Example 437], with 3.88^[b]; and `O=C(NC1CCC1c1c(F)cccc1F)c1c(F)cccc1F` (centres unmarked) [Example 439], with 2.83^[b].
With `O=C(NC1CCC1c1c(F)cccc1F)c1ccc(Cl)cc1Cl` (centres unmarked) [Example 441], the logP (method [b] (pH 2.7)) is 3.49^[b].
Still for that read-out and setting: then `O=C(NC1CCC1c1c(F)cccc1F)c1cccc(Cl)c1` (centres unmarked) [Example 442], with 3.26^[b].
For the molecule `O=C(NC1CCC1c1c(F)cccc1F)c1ccc(Cl)cc1` (centres unmarked) [Example 444], under “method [b] (pH 2.7)”, the logP was 3.20^[b].
For the molecule `O=C(NC1CCC1c1ccccc1Cl)c1cccc(Cl)c1` (centres unmarked) [Example 445], the logP (method [b] (pH 2.7)) is 3.75^[b].
Take `O=C(NC1CCC1c1ccccc1Cl)c1ccc(Cl)cc1` (centres unmarked) [Example 446]: the logP (method [b] (pH 2.7)) is 3.70^[b].
In the case of `O=C(NC1CCC1c1ccccc1Cl)c1ccccc1` (centres unmarked) [Example 447], the logP (method [b] (pH 2.7)) was 3.14^[b].
In the case of `O=C(NC1CCC1c1ccccc1Cl)c1cccc(Cl)c1` (centres unmarked) [Example 448], the logP (method [b] (pH 2.7)) was 3.36^[b].
The same measure, in the same setting: then `O=C(NC1CCC1c1ccccc1Cl)c1ccccc1` (centres unmarked) [Example 449], with 2.81^[b]; and `O=C(NC1CCC1c1ccc(Cl)cc1Cl)c1ccccc1` (centres unmarked) [Example 450], with 3.75^[b]; and `O=C(NC1CCC1c1ccc(Cl)cc1Cl)c1ccc(Cl)cc1` (centres unmarked) [Example 452], with 4.33^[b].
For `O=C(NC1CCC1c1ccc(Cl)cc1Cl)c1ccc(Cl)cc1` (centres unmarked) [Example 453], for the setting “method [b] (pH 2.7)”, the logP was 3.85^[b].
In the case of `O=C(N[C@@H]1CC[C@H]1c1ccc(Cl)cc1Cl)c1cccc(Cl)c1` [Example 454], the chromatographic logP (method [b] (pH 2.7)) was found to be 4.4.
Consider `O=C(N[C@@H]1CC[C@@H]1c1ccccc1Cl)c1ccc(Cl)cc1` [Example 455], for which, for the setting “method [b] (pH 2.7)”, the chromatographic logP was found to be 3.35.
`O=C(NC1CCC1c1ccc(Cl)cc1Cl)c1cccc(Cl)c1` (centres unmarked) [Example 457]: the logP (method [b] (pH 2.7)) is 3.87^[b].
As for `O=C(NC1CCC1c1ccccc1C(F)(F)F)c1ncccc1Cl` (centres unmarked) [Example 458], for the setting “method [b] (pH 2.7)”, the logP was 3.22^[b].
As for `O=C(NC1CC1c1ccc(Cl)cc1)c1ccccc1C(F)F` (centres unmarked) [Example 459], the logP was 2.90^[b] (method [b] (pH 2.7)) and 2.88^[c]; (method [c] pH 7.8).
`O=C(NC1CC1c1ccc(Cl)cc1)c1c(F)cccc1Cl` (centres unmarked) [Example 463]: the logP reads like this: (method [b] (pH 2.7)) 2.83^[b]; (method [c] pH 7.8) 2.75^[c];.
Take `O=C(NC1CC1c1ccc(Cl)cc1)c1c(F)cccc1I` (centres unmarked) [Example 464]: the logP (method [b] (pH 2.7)) is 3.02^[b] and the logP (method [c] pH 7.8) is 2.99^[c];.
Take `O=C(NC1CC1c1ccc(Cl)cc1)c1c(F)cc(F)cc1F` (centres unmarked) [Example 466]: the logP is, setting by setting: (method [b] (pH 2.7)) 2.80^[b]; (method [c] pH 7.8) 2.78^[c];.
Consider `O=C(NC1CC1c1ccc(Cl)cc1)c1ccccc1[N+](=O)[O-]` (centres unmarked) [Example 467], for which the logP is, setting by setting: (method [b] (pH 2.7)) 2.59^[b]; (method [c] pH 7.8) 2.45^[c];.
As to `Cn1cc(C(=O)NC2CCC2c2ccc(Cl)cc2Cl)c(C(F)F)n1` (centres unmarked) [Example 468], for the setting “method [b] (pH 2.7)”, the logP is 3.26^[b].
In the case of `Cn1cc(C(=O)NC2CCC2c2ccc(Cl)cc2Cl)c(C(F)F)n1` (centres unmarked) [Example 469], the logP (method [b] (pH 2.7)) is 2.95^[b].
Consider `O=C(NC1CCC1c1ccc(Cl)cc1Cl)c1cccnc1C(F)(F)F` (centres unmarked) [Example 470], for which, where the note is “method [b] (pH 2.7)”, the logP is 3.45^[b].
For `O=C(NC1CCC1c1ccc(Cl)cc1Cl)c1ccccc1Br` (centres unmarked) [Example 471], the logP (method [b] (pH 2.7)) was 3.92^[b].
Turning to `O=C(NC1CCC1c1ccc(Cl)cc1Cl)c1ccccc1C(F)(F)F` (centres unmarked) [Example 474], the logP (method [b] (pH 2.7)) is 4.02^[b].
On the same count and under the same terms, then `O=C(NC1CCC1c1ccc(F)cc1C(F)(F)F)c1cccc(Cl)c1` (centres unmarked) [Example 477], with 4.02^[b].
Take `O=C(NC1CCC1c1ccc(F)cc1C(F)(F)F)c1ncc(C(F)(F)F)cc1Cl` (centres unmarked) [Example 480]: the logP (method [b] (pH 2.7)) was 4.23^[b].
`O=C(NC1CCC1c1ccc(F)cc1C(F)(F)F)c1ncc(C(F)(F)F)cc1Cl` (centres unmarked) [Example 483]: the logP (method [b] (pH 2.7)) is 3.97^[b].
As to `Cn1cc(C(=O)NC2CCC2c2ccc(F)cc2C(F)(F)F)c(C(F)F)n1` (centres unmarked) [Example 484], the logP (method [b] (pH 2.7)) is 3.02^[b].
Take `Cn1cc(C(=O)NC2CCC2c2c(F)cccc2F)c(C(F)F)n1` (centres unmarked) [Example 486]: the logP (method [b] (pH 2.7)) was 2.42^[b].
`O=C(N[C@@H]1CC[C@H]1c1ccccc1C(F)(F)F)c1ccccc1I` [Example 497]: under “method [b] (pH 2.7)”, the chromatographic logP worked out at 3.61.
`O=C(N[C@@H]1CC[C@H]1c1ccccc1C(F)(F)F)c1ccccc1Cl` [Example 498]: the chromatographic logP (method [b] (pH 2.7)) worked out at 3.42.
As to `O=C(NC1CC1c1ccccc1Cl)c1cccnc1C(F)(F)F` (centres unmarked) [Example 499], under “method [b] (pH 2.7)”, the logP is 2.62^[b].
Take `O=C(NC1CC1c1ccccc1C(F)(F)F)c1cccnc1C(F)(F)F` (centres unmarked) [Example 500]: the logP (method [b] (pH 2.7)) is 2.79^[b].
In the case of `O=C(NC1CCC1c1c(F)cccc1F)c1ccccc1` (centres unmarked) [Example 514], the logP (method [b] (pH 2.7)) was 2.75^[b].
